Structures can show the parent of a compound that is named as a salt.
What was measured:
[1] = system: HT-29 colorectal adenocarcinoma cells; assay: MTS cell viability assay, HT-29; assay type: cell-based; conditions: Homo sapiens; HT-29; 24-72 hours; MTS; read-out: Inhibition of growth IC50, HT-29 (Table II)
[2] = system: normal human fibroblast cells (FF2441); assay: MTS cell viability assay, normal fibroblasts; assay type: cell-based; conditions: Homo sapiens, FF2441, read-out: Inhibition of growth IC50, Fibroblast cells (FF2441) (Table II)
Description: 5×10^3 cells per well in 100 μl DMEM-10% FBS are grown in a 96-well plate for 36 or 72 hours, respectively for melanoma (UACC 903, 1205 Lu and WM115) and human fibroblast (FF2441) cell lines and treated with either PBS vehicle or increasing concentrations (3.5-21 μM) of PBIT, PBISe, PEIT or PEISe for 24 hours. Cellular viability compared to control treated cells is measured using the MTS assay (Promega, Madison, Wis.). IC50 (μM) values for each compound in respective cell lines is determined from three independent experiments using GraphPad Prism version 4.01 (GraphPad, San Diego, Calif.), bars, SEM.
Viability of colon adenocarcinoma cells (Caco-2, HT 29, HCT 116, SW 480) and normal fibroblast cells (FF2441) treated with PBIT (1), PBISe (2), PEIT (3) or PEISe (4) is compared. The IC50 value is evaluated by treating with increasing concentrations of PBIT, PEIT, PEISe (10-100 μM) or PBISe (1.6-50 μM) for 24-72 hours and the number of viable cell are quantified using MTS (Promega, Wis.).

[3] = Toxicity of topical application in vivo
Description: Blood collected from the control and experimental animals, at the end of treatment (day 29), are analyzed for SGOT, SGPT (representing liver and cardiac toxicity) and alkaline phosphatase (for kidney and cardiac toxicity). Additionally, concentrations of metabolites (glucose, creatinine, urea nitrogen and total protein) in serum are also determined.

[4] = system: HCT-116 colorectal adenocarcinoma cells; assay: MTS cell viability assay, HCT-116; assay type: cell-based; conditions: Homo sapiens; HCT-116; 24-72 hours; MTS; read-out: Inhibition of growth IC50, HCT-116 (Table II)
UACC 903 melanoma tumors = assay: Topical application on melanoma tumor growth in vivo; conditions: topical daily 0.0945 umoles (1.5 ppm selenium, 5.12 mg/kg); day 17 through day 29
Description: UACC 903 melanoma cells (0.25×10^5/site) are subcutaneously injected into left and right flanks of 4-6 weeks old female nude mice (n=4) and 24 h later PBIT, PBISe (0.0945 umoles, 1.5 ppm selenium equivalent to 5.12 mg/kg body weight) or vehicle control (acetone) is applied topically for 29 days. Sizes of developing tumors are measured and average sizes±S.E.M. (in mm^3) plotted. A minimum of 5 mice per group is used for the topical treatment.

[5] = system: A549 lung adenocarcinoma cells; assay: MTS cell viability assay, A549; assay type: cell-based, human
Description: (§1) Growth inhibitory effects on cultured cells from human vertical growth phase (VGP) melanoma cell line WM115, Lung adenocarcinoma (A549), fibrosarcoma (HT-1080), prostate adenocarcinoma (PC-3), ovarian carcinoma (OVCAR-3), and breast adenocarcinoma (MDA-MB-231) are plated in 96 well plates at a density of 5×10^3 cells/well in 100 μl media. […] Dose response curves for each compound are generated and the IC50 values (μM) determined using GraphPad Prism software. Each experiment is replicated at least 3 times and the average IC50 (μM) values with standard error represented.

[6] = system: HT-1080 fibrosarcoma cells; assay: MTS cell viability assay, HT-1080; assay type: cell-based, human
Description: as §1

[7] = system: PI3 kinase/Akt3 and MAP kinase signaling in UACC 903 cells; assay: Western blot analysis of melanoma cell lysates; assay type: cell-based
Description: Melanoma cell line UACC 903 cells (1×10^6) are treated with increasing concentrations (7-21 μM) of PBIT and PBISe for 24 hours and cell lysates examined by Western blot analysis Cell lysates are harvested by addition of lysis buffer containing 50 mM HEPES (pH 7.5), 150 mM NaCl, 10 mM EDTA, 10% glycerol, 1% Triton X-100, 1 mM sodium orthovanadate, 0.1 mM sodium molybdate, 1 mM phenylmethylsulfonyl fluoride, 20 μg/ml aprotinin, and 5 μg/ml leupeptin. Whole cell lysates are centrifuged (≧10,000×g) for 10 minutes at 4° C. to remove cell debris. Protein concentrations are quantitated using the BCA assay (Pierce, Rockford, Ill.), and 30 μg of lysate loaded per lane onto NuPAGE Gels (Life Technologies, Carlsbad, Calif.). Following electrophoresis, samples are transferred to polyvinylidene difluoride membrane (Pall Corporation, Pensacola, Fla.). Blots are probed with antibodies to PRAS40 and phosphorylated PRAS40 (Thr246) (Invitrogen, Carlsbad, Calif.); antibodies to iNOS, cyclin D1, p27, p21, Erk2, α-enolase and secondary antibodies conjugated with horseradish peroxidase from Santa Cruz Biotechnology (Santa Cruz, Calif.); and antibodies to Akt3, phosphorylated-Akt (Ser473), phosphorylated-Erk 1/2 (Thr202/Tyr204), caspase-3 and cleaved PARP from Cell Signaling Technology (Danvers, Mass.). Immunoblots are developed using ECL (Pierce, Rockford, Ill.).

UACC 903 melanoma cells = assay: Cellular proliferation, BrdU ELISA; assay type: cell-based; conditions: 2 μM, 24 hours
Description: Cellular proliferation and apoptosis rates are measured by seeding 5×10^3 cells in 96-well plates, followed by treatment for 24 hours with PBISe or PBIT (0.5-10.5 μM). Proliferation and apoptosis rates are measured using a BrdU ELISA kit (Roche Applied Sciences, Indianapolis, Ind.) and Apo-ONE Homogenous caspase-3/7 Assay kit (Promega, Madison, Wis.), respectively, (Madhunapantula S V, et al., Cancer Res 2007; 67:3626-36).

[8] = system: PC-3 prostate adenocarcinoma cells; assay: MTS cell viability assay, PC-3; assay type: cell-based, human
Description: as §1

1205 Lu melanoma tumors = assay: Tumorigenicity assessment, 1205 Lu xenograft, i.p. treatment; assay type: in vivo, nude mice; conditions: day 24; i.p. 0.315 μmoles (2.5 ppm selenium) Monday, Wednesday, Friday for 3 weeks
Description: Tumor kinetics are measured by subcutaneous injection of 5×10^6 UACC 903 or 2.5×10^61205 Lu cells in 0.2 ml of DMEM containing 10% FBS above left and right rib cages of 4-6 week old female nude mice (Harlan Sprague Dawley, Indianapolis, Ind.). Six days later, a fully vascularized tumor has developed and mice are randomly placed in control DMSO or experimental (PBIT or PBISe) groups (n=5 animals; 10 tumors total) followed by i.p. treatment with PBIT ([…]) or PBISe ([…]; equivalent to 2.5 ppm selenium per 20 g mouse) on Monday, Wednesday and Friday for 3 weeks. Dimensions of developing tumors and body weight are measured.

[9] = system: UACC 903 melanoma cell line; assay: MTS cell viability assay, UACC 903; assay type: cell-based; conditions: Homo sapiens; UACC 903 melanoma; 24 hours treatment; MTS; read-out: IC50, UACC 903 (Table I)
Description: (§2) Cellular viability compared to control treated cells is measured using the MTS assay (Promega, Madison, Wis.).

[10] = system: 1205Lu melanoma cell line; assay: MTS cell viability assay, 1205Lu; assay type: cell-based; conditions: Homo sapiens; 1205Lu melanoma; 24 hours treatment; MTS; read-out: IC50, 1205Lu (Table I)
Description: as §2

[11] = system: colon adenocarcinoma cells (Caco-2, HT 29, HCT 116, SW 480); assay: MTS viability, four colon cancer cell lines (summary); assay type: cell-based
Description: The IC50 value is evaluated by treating with increasing concentrations of PBIT, PEIT, PEISe (10-100 μM) or PBISe (1.6-50 μM) for 24-72 hours and the number of viable cell are quantified using MTS (Promega, Wis.).

UACC 903 tumors = assay: Apoptosis and proliferation rates in size and time matched tumors; assay type: in vivo, nude mice; conditions: day 15, i.p. on alternate days
Description: For mechanistic studies, 5×10^6 UACC 903 cells are injected subcutaneously into nude mice generating tumors of the same size developing at parallel time points. 6-days later mice are treated i.p. with DMSO vehicle, PBIT or PBISe (0.315 moles each) on alternate days up to day 15. Size and time matched tumors are harvested at days 9, 11, 13, and 15 to assess changes in cell proliferation and apoptosis. […] Protein concentration is quantitated using Bio-Rad protein assay reagent (Bio-Rad laboratories, Hercules, Calif.) and analyzed by Western blotting.
For caspase-3/7 activity determination, 100 μg of protein lysate is incubated with a Rhodamine-110 conjugated caspase-3/7 substrate (Z-DEVD) for 1-2 hours and fluorescence (485 nm excitation and 520 nm emission) measured in a SPECTRAmax M2 plate reader. […] A minimum of 6 different tumors with 4-6 fields per tumor is analyzed and results represented as the average±SEM. […]

[12] = system: A549, Caco-2, HT-1080, PC-3, OVCAR-3, MDA-MB-231, WM115; assay: MTS viability, all cancer cell lines tested (summary); assay type: cell-based, human
Description: as §1

[13] = UACC 903, 7-21 μM, 24 hours, compared to PBIT

SMILES: N=C(N)[Se]CCc1ccc(CC[Se]C(=N)N)cc1 [PBISe, s,s′-1,4-phenylene-bis(1,2-ethanediyl)bis-isoselenourea dihydrobromide]
- IC50 [1]: 3.84 ± 0.44 µM
- IC50 [2]: 17.1 ± 0.59 µM
- serum enzyme and metabolite levels, topical application ([3]; day 29, SGOT, SGPT, alkaline phosphatase, glucose, creatinine, urea nitrogen, total protein): no significant differences
- body weight, topical application ([3]; topical every day, 29 days): no detectable differences
- IC50 [4]: 4.72 ± 0.44 µM
- decrease in tumor volume versus vehicle acetone or PBIT treated mice (UACC 903 melanoma tumors): 50%
- IC50 ([5]; Homo sapiens, A549, 24 h, read-out: Inhibition Cancer Cells IC50, A549 (Table III)): 4.2 ± 0.58 µM
- Fold increase in efficacy (PBIT/PBISe), A549 ([5]; ratio of IC50 PBIT/PBISe, A549): >23.8 fold
- IC50 ([6]; Homo sapiens, HT-1080, 24 h, read-out: Inhibition Cancer Cells IC50, HT-1080 (Table III)): 3.2 ± 0.61 µM
- Fold increase in efficacy (PBIT/PBISe), HT-1080 ([6]; ratio of IC50 PBIT/PBISe, HT-1080): >31.2 fold
- cleaved caspase-3 and PARP ([7]; UACC 903, 7-21 μM, 24 hours): increases
- phosphorylation of downstream Akt3 substrate PRAS40 ([7]; UACC 903, 7-21 μM, 24 hours): inhibited
- Akt phosphorylation [7, 13]: inhibits
- total Akt protein levels [7, 13]: decreases
- cyclin D1 levels ([7]; melanoma cells, FIG. 4C): reduces
- p27 as well as p21 levels ([7]; three cell lines, FIG. 4C): increases
- reduction of cellular proliferative capacity compared to PBS vehicle or PBIT treated cells (UACC 903 melanoma cells): ~90%
- IC50 ([8]; Homo sapiens, 24 h, read-out: Inhibition Cancer Cells IC50, PC-3 (Table III)): 6.6 ± 0.95 µM
- Fold increase in efficacy (PBIT/PBISe), PC-3 ([8]; ratio of IC50 PBIT/PBISe, PC-3): >15.2 fold
- difference in tumor volume compared to control DMSO or PBIT, 1205 Lu (1205 Lu melanoma tumors): ~50%
- IC50 [9]: 8.1 ± 0.8 µM
- IC50 [10]: 9.8 ± 0.7 µM
- fold more sensitive, colon adenocarcinoma cells than normal cells ([11]; colon lines vs FF2441): 2-7 fold
- IC50 ([11]; read-out: IC50 range, four colon cancer cell lines): 2.4 to 5.55 µM
- caspase-3/7 activity in tumors versus PBIT or DMSO vehicle (UACC 903 tumors): 2 fold
- fold more potent at decreasing cell viability compared to PBIT, all cancer cell lines tested ([12]; A549, Caco-2, HT-1080, PC-3, OVCAR-3, MDA-MB-231, WM115): > 10 fold
- IC50 ([12]; Homo sapiens, read-out: concentration decreasing cell viability by 50% (IC50), cancer cell lines of Table III): 8 to 10 µM

From patent US8772274B1, “Anti-cancer compositions and methods” (The Penn State Research Foundation, priority 2008, dated 2014)
